Test results taken from patent publication US20110294794A1, “TREATMENT OF PROTEINOPATHIES USING A FARNESYL TRANSFERASE INHIBITOR” (Link Medicine Corporation, priority 2008, published 2011).
“Also recorded” adds a separate entry of the source.

Assays:
[1] = Pharmacokinetics of LNK-754-TS in mice, oral administration; format: in vivo, mouse; details: 9 mg/kg, 20% beta-cyclodextrin
Description: In the experimental data represented in Table 2A, a different method of drug delivery is used (oral) than in the experiment represented in FIG. 3. The best way to compare the relative coverage of the two delivery methods (oral and continuous infusion) is by comparing area-under-the-curve (AUC) values. We can compare the calculated AUC values for the continuous infusion oncology study presented in FIG. 3 and the AUC values associated with the synuclein model doses in the table. […] The AUCs of orally dosed LNK-754-TS at 0.9 mg/kg and at 0.09 mg/kg QD are 34.6 and […], respectively.
The pharmacokinetic profiles of LNK-754-TS and Zarnestra® were analyzed using methods known in the art. The results are shown in FIGS. 13-14 and the tables below.

TAU = test: TAU441 transgenic mice, TAU immunoreactivity (AT180, HT7) in the amygdala; format: in vivo, mouse; details: 0.09 mg/kg once every 24 hours, three months
Method: Animals and treatments: Male and female human WT alpha-synuclein over-expressing transgenic mice^32 at 6 months of age were given vehicle (10% beta-cyclodextrin) or LNK-754-TS (0.09, 0.9 and 9 mg/kg) per oral gavage twice daily for 3 months or animals at 7 months of age were given vehicle (2.5% beta-cyclodextrin) or LNK-754-TS (2 mg/kg) once every three days for 3 months. Male and female TAU transgenic mice expressing TAU441 bearing the missense mutations V337M^50 and R406W under the control of the murine Thy-1 promoter with a CB6xC57BL/6 background were 5 months old at the time when the oral treatment for three months with LNK-754-TS (0.9 and 0.09 mg/kg) as well as vehicle (2.5% beta-cyclodextrin) was started. Female human APP/PS1 (APP (London V7171)/PS1(A246E)) over-expressing transgenic mice were treated with LNK-754-TS (0.9 mg/kg) or vehicle (2.5% beta-cyclodextrin) for 2 months or 12 days.
Immunohistochemistry and quantification of stained cells: For evaluation of α-synuclein immunoreactivity (IR), 5 sagittal cryo-cut sections (10 μm slice thickness) from five different layers were used for counting of IR cells in the cortex and hippocampus. […] IR positive cells were quantified using specialized image analysis software (Image Pro Plus, version 4.5.1.29). […] Images were evaluated with ImageProPlus (version 6.2) image analysis software. For APP/PS1 transgenic animals sagittal hemisections (40 μm) were collected and processed for Aβ immunohistochemistry using an 6E10 antibody, Thioflavin-S staining Primary antibodies were detected by the ABC method. […]
This study was designed to evaluate the effects of a treatment with LNK-754-TS dosed at 0.09 mg per kg on behavior, TAU and TAU-pT231 levels, and brain morphology of TAU441 Tg mice. Histological evaluations were performed to quantitatively evaluate TAU pathology. TAU depositions were determined using the monoclonal TAU-antibodies AT180 and HT7. […]

TAU441 transgenic mice = test: Porsolt forced swim task in TAU441 transgenic mice; format: in vivo, mouse
Description: Tests relevant to depression-like behaviors in rodents are primarily stress-induced reductions in avoidance or escape, termed behavioral despair. One of the most widely used animal tests for depression is the Porsolt forced swim task (Porsolt et al., Arch. Int. Pharmacodyn. Ther. 229(2):327-36, 1977; Porsolt et al., Eur. J. Pharmacol. 47(4):379-91, 1978). This study was designed to evaluate the effects of treatment with LNK-754 on behavior of TAU441 transgenic mice. At start of the treatment, the animals were 5 months old. Untreated non-transgenic animals of the same age were tested and sacrificed serving as the baseline group. Mice received vehicle or LNK-754-TS at a dose of 0.09 mg per kg, 7 days a week for 90 days. In the last week of the treatment period and before sacrifice, mice were evaluated using the Porsolt forced swim task (FIG. 10B).

Aβ = test: h-APPsl transgenic mouse, Aβ immunoreactivity and extracted Aβ; format: in vivo; details: 0.9 mg/kg once every 24 hr, three months
[2] = test system: 3T3 H-ras (61L) xenograft; details: BID for 10 days; cited from earlier work
[3] = test system: 3T3 H-ras (61L) xenograft tumor; details: continuous infusion, cited from earlier work
[4] = 0.09 mg/kg once every 24 hr, 90 days

Compound: C#Cc1cccc(-c2cc(=O)n(C)c3ccc([C@](O)(c4ccc(Cl)cc4)c4cncn4C)cc23)c1 [LNK-754-TS, (R)-6-[(4-chlorophenyl)-hydroxyl-(1-methyl-1-H-imidazol-5-yl)-methyl]-4-(3-ethynylphenyl)-1-methyl-2-(1H)-quinonlinone (2S,3S)-dihydroxybutanedioate]
- Cmax ([1]; BID day 1): 1385 ng/mL
- Cmax ([1]; BID day 5): 1485 ng/mL
- number of AT180 immunoreactive (affected) cells in the amygdala (TAU): comparable to those of baseline animals
- phosphorylated Tau (AT180) immunoreactivity in the amygdala vs. vehicle (TAU): significantly decreased; also recorded: significant reduction; also recorded: significantly reduced
- total Tau (HT7) immunoreactivity in the amygdala vs. vehicle (TAU): not significantly reduced; also recorded: did not change
- depressed phenotype (TAU441 transgenic mice; 0.09 mg/kg once every 24 hours): significantly ameliorated
- floating behavior vs. vehicle (TAU441 transgenic mice; [4]): significantly less; also recorded: decreasing; also recorded: decreased
- forced swim behavior compared with non-transgenic mice (TAU441 transgenic mice; [4]): behaved similar to non-transgenic mice; also recorded: behaved similarly to non-tg mice; also recorded: levels equivalent to that seen in non-transgenic mice
- struggling behavior vs. vehicle (TAU441 transgenic mice; [4]): higher percentage; also recorded: increasing; also recorded: significantly increased
- cortical Aβ immunoreactivity and Aβ extracted in the insoluble fractions (Aβ): did not significantly reduce
- dose required for suppression of tumor growth [2]: at least 25 mg per kg
- continuous serum level at which significant inhibition of tumor growth was seen ([3]; 7 day treatment): above 100 ng/mL
- inhibition of Ras farnesylation at which significant inhibition of tumor growth was seen ([3]; tumor tissue): ≥ 50%
